This passage reports IC50 results from patent US11414384B2, “P300/CBP hat inhibitors” (Constellation Pharmaceuticals, Inc., priority 2018, dated 2022).

p300 HAT domain (residues 1287-1666), sequence (Q09472 1287-1666): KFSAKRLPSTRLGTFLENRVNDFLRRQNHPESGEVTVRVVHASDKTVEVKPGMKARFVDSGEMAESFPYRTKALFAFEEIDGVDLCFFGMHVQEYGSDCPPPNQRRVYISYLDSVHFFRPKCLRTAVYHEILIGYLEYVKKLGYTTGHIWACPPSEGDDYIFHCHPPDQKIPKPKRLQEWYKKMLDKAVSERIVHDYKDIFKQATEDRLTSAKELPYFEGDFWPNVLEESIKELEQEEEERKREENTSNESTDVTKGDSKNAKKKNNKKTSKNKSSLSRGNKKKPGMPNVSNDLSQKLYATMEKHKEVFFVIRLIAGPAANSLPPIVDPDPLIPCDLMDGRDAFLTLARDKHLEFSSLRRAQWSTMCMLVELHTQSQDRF

The first assay has as its target p300 HAT domain (residues 1287-1666) (Homo sapiens (Human), UniProt Q09472). Briefly: p300 HAT SPA assay (scintillation proximity assay, acetylation of biotinylated H3(1-21) peptide). The note with it: p300 HAT domain; average of at least 2 replicate titrations; read-out: P300 HAT SPA IC50. The format is biochemical. The method, then:
In a typical experiment the p300 HAT inhibitory activity of the compounds described herein was determined in accordance with the following experimental method.
The expressed protein was purified by Ni2+ affinity, followed by anion exchange chromatography. Appropriate fractions were pooled and buffer exchanged into 20 mM Hepes pH 7.5, 150 mM NaCl, and 1 mM TCEP.
35 μL of the reaction volume was transferred to a 384-well streptavidin FlashPlate (PerkinElmer) using a Bravo liquid handler (Velocity 11) and incubated for 1.5 hr at RT. […] Data were analyzed in Genedata to determine inhibitor IC50 values.
(In general: SPA uses beads or plates that emit light when radiolabelled molecules are held near them.)
As usually defined, the IC50 is the point on the concentration scale where inhibition reaches its midpoint. Take `O=C(c1c[nH]c2cc(-c3ccncc3)ccc12)C(NCCc1ccc(Cl)cc1)c1ccccc1` (single isomer, unassigned) [89 Isomer 2]: the IC50 is 0.966 µM.

As to `CCN(CC)C(=O)c1ccc2c(C(=O)C(NCCc3ccc(C#N)cc3)c3ccccc3)c[nH]c2c1` (single isomer, unassigned) [165 Isomer 1], the concentration for half-maximal inhibition (IC50) worked out at 4.33 µM.

For the compound `CCN1CC(NC(=O)c2ccc3c(C(=O)C(NCCc4ccc(C#N)cc4)c4ccccc4)c[nH]c3c2)C1` (single isomer, unassigned) [163 Isomer 1], the half-maximal inhibitory concentration (IC50) came to 2.84 µM.

For `Cn1cc(-c2ccc3c(C(=O)C(NCCc4ccc(C#N)cc4Cl)c4ccccc4)c[nH]c3c2)cn1` (single isomer, unassigned) [72 Isomer 1], the IC50 was 0.733 µM.

On to `O=C(c1c[nH]c2ccccc12)C(NCCc1ccc(OC(F)(F)F)cc1)c1ccccc1` (single isomer, unassigned) [40 Isomer 1], for which the IC50 is greater than 60 µM.

Turning to `O=C(c1c[nH]c2cc(-n3cccn3)ccc12)C(NCCc1ccc(F)cc1)c1ccccc1` (single isomer, unassigned) [118 Isomer 1], the IC50 is greater than 30 µM.

`COc1ccc(CCNC(C(=O)c2c[nH]c3c(Cl)cccc23)c2ccccc2)cc1` (single isomer, unassigned) [28 Isomer 1]: the IC50 came out at 7.58 µM.

Regarding `CCn1cc(-c2ccc3c(C(=O)C(NCCc4ccc(Cl)cc4)c4ccccc4)c[nH]c3c2)cn1` (single isomer, unassigned) [86 Isomer 1], the IC50 stood at 28.1 µM.

`O=C(c1c[nH]c2ccccc12)C(NCCc1ccc(Cl)nc1)c1ccccc1` (single isomer, unassigned) [52 Isomer 1]: the IC50 came out at 15.2 µM.

Regarding `CC(Cc1ccc(Cl)cc1)NC(C(=O)c1c[nH]c2ccccc12)c1ccccc1` (single isomer, unassigned) [27 Isomer 3], the IC50 is greater than 60 µM.

Turning to `CCC(CNC(C(=O)c1c[nH]c2ccccc12)c1ccccc1)c1ccc(Cl)cc1` (single isomer, unassigned) [59 Isomer 2], the 50% inhibitory concentration (IC50) is 13.8 µM.

As for `O=C(c1c[nH]c2cc(N3CCCC3=O)ccc12)C(NCCc1ccc(Cl)cc1)c1ccccc1` (single isomer, unassigned) [74 Isomer 2], the IC50 stood at 0.16 µM.

In the case of `Cn1cc(-c2ccc3c(C(=O)C(NCCc4ccc(S(N)(=O)=O)cc4)c4ccccc4)c[nH]c3c2)nn1` (single isomer, unassigned) [116 Isomer 1], the IC50 is greater than 5 µM.

Regarding `O=C(c1c[nH]c2ccccc12)C(NCCn1cnc2ccccc21)c1ccccc1` (single isomer, unassigned) [37 Isomer 1], the IC50 is greater than 60 µM.

Regarding `CN(C)C(=O)Cc1ccc(CCNC(C(=O)c2c[nH]c3ccccc23)c2ccccc2)cc1` (single isomer, unassigned) [137 Isomer 1], the IC50 stood at 21.8 µM.

As to `Cn1cc(-c2ccc3c(C(=O)C(NCCc4ccc(Cl)cc4)c4ccccc4)c[nH]c3c2)cn1` (single isomer, unassigned) [83 Isomer 1], the IC50 was 1.31 µM.

For the compound `O=C(c1c[nH]c2ccccc12)C(NCCc1cccc(Cl)c1)c1ccccc1` (single isomer, unassigned) [4 Isomer 2], the half-inhibitory concentration (IC50) amounted to 4.4 µM.

On to `O=C(c1c[nH]c2ccccc12)C(NCCc1ccc(-c2c[nH]nn2)cc1)c1ccccc1` (single isomer, unassigned) [57 Isomer 2], for which the IC50 amounted to 0.287 µM.

Consider `Cn1cc(-c2ccc3c(C(=O)C(NCCc4ccc(C(=O)O)cc4Cl)c4ccccc4)c[nH]c3c2)cn1` (single isomer, unassigned) [142 Isomer 1], for which the IC50 came to 3.27 µM.

Regarding `O=C(c1c[nH]c2ccccc12)[C@@H](NCCc1ccc(-c2nn[nH]n2)cc1)c1ccccc1` (single isomer, unassigned) [185 Isomer 2], the IC50 was greater than 30 µM.

Take `CN(C)C(=O)c1ccc2c(C(=O)C(NCCc3ccc(Cl)cc3Cl)c3ccccc3)c[nH]c2c1` (single isomer, unassigned) [152 Isomer 1]: the half-inhibitory concentration (IC50) is greater than 30 µM.

As to `CC(CNC(C(=O)c1c[nH]c2cc(-c3cnn(C)c3)ccc12)c1ccccc1)c1ccc(Cl)cc1` (single isomer, unassigned) [91 Isomer 3], the IC50 turned out to be 6.44 µM.

As for `CN1CCC(c2ccc3c(C(=O)C(NCCc4ccc(C(N)=O)cc4)c4ccccc4)c[nH]c3c2)CC1` (single isomer, unassigned) [178 Isomer 1], the IC50 is greater than 5 µM.

With `O=C(c1c[nH]c2ccccc12)C(NCCN1CCCCC1=O)c1ccccc1` (single isomer, unassigned) [41 Isomer 1], the IC50 was greater than 60 µM.

As to `C[C@H](NC(=O)c1ccc2c(C(=O)C(NCCc3ccc(C#N)cc3)c3ccccc3)c[nH]c2c1)C(F)(F)F` (single isomer, unassigned) [169 Isomer 2], the half-maximal inhibitory concentration (IC50) was 0.0871 µM.

On to `COCCNc1ccc(CCNC(C(=O)c2c[nH]c3ccccc23)c2ccccc2)cn1` (single isomer, unassigned) [54 Isomer 2], for which the IC50 worked out at 15.7 µM.

For the compound `CN(C)C(=O)CCc1ccc2c(C(=O)C(NCCc3ccc(F)cc3)c3ccccc3)c[nH]c2c1` (single isomer, unassigned) [49 Isomer 1], the IC50 is greater than 30 µM.

Turning to `C[C@H](O)CNC(=O)c1ccc2c(C(=O)C(NCCc3ccc(C#N)cc3)c3ccccc3)c[nH]c2c1` (single isomer, unassigned) [168 Isomer 2], the IC50 was determined as 0.0531 µM.

For the compound `CC(Cc1ccc(Cl)cc1)NC(C(=O)c1c[nH]c2ccccc12)c1ccccc1` (single isomer, unassigned) [27 Isomer 2], the IC50 is greater than 60 µM.

`Cn1cc(-c2ccc3c(C(=O)[C@@H](NCCc4ccc(N)nc4)c4ccccc4)c[nH]c3c2)cn1` (single isomer, unassigned) [187 Isomer 1]: the IC50 was greater than 5 µM.

As to `N#Cc1ccc(CCNC(C(=O)c2c[nH]c3cc(C(=O)N4CCCC4)ccc23)c2ccccc2)cc1` (single isomer, unassigned) [171 Isomer 2], the IC50 was found to be 0.932 µM.

Take `CN(C)C(=O)c1ccc2c(C(=O)C(NCCc3ccc(C#N)cc3)c3ccccc3)c[nH]c2c1` (single isomer, unassigned) [172 Isomer 2]: the IC50 stood at 0.657 µM.

Take `CC(C)NC(=O)c1ccc2c(C(=O)C(NCCc3ccc(C#N)cc3)c3ccccc3)c[nH]c2c1` (single isomer, unassigned) [167 Isomer 1]: the IC50 is 0.0232 µM.

In the case of `Cn1cnc(-c2ccc3c(C(=O)[C@@H](NCCc4ccc(C(N)=O)cc4)c4ccccc4)c[nH]c3c2)c1` (single isomer, unassigned) [177 Isomer 1], the IC50 is greater than 5 µM.

With `CN1CCC(Oc2ccc3c(C(=O)C(NCCc4ccc(C#N)cc4)c4ccccc4)c[nH]c3c2)CC1` (single isomer, unassigned) [126 Isomer 1], the IC50 was 2.84 µM.

For the compound `CCN(CC)C(=O)c1ccc2c(C(=O)C(NCCc3ccc(C#N)cc3)c3ccccc3)c[nH]c2c1` (single isomer, unassigned) [165 Isomer 2], the IC50 stood at 2.36 µM.

`NS(=O)(=O)c1ccc(CCNC(C(=O)c2c[nH]c3c(C(F)(F)F)cccc23)c2ccccc2)cc1` (single isomer, unassigned) [50 Isomer 1]: the IC50 is 6.93 µM.

Turning to `O=C(c1c[nH]c2ccccc12)[C@@H](NCCc1ccc(-c2nnc[nH]2)cc1)c1ccccc1` (single isomer, unassigned) [186 Isomer 2], the 50% inhibitory concentration (IC50) was 3.54 µM.

On to `Cn1cc(-c2ccc3c(C(=O)C(NCCc4ccc(Cl)cc4)c4ccccc4)c[nH]c3c2)nn1` (single isomer, unassigned) [104 Isomer 1], for which the half-inhibitory concentration (IC50) was greater than 5 µM.

In the case of `CNC(=O)c1ccc2c(C(=O)C(NCCc3ccc(C#N)cc3)c3ccccc3)c[nH]c2n1` (single isomer, unassigned) [67 Isomer 1], the half-maximal inhibitory concentration (IC50) came out at 2.36 µM.

`COCCn1cc(-c2ccc3c(C(=O)C(NCCc4ccc(C(N)=O)cc4)c4ccccc4)c[nH]c3c2)cn1` (single isomer, unassigned) [183 Isomer 2]: the half-maximal inhibitory concentration (IC50) amounted to 0.717 µM.

`CC(CNC(C(=O)c1cnn2cc(C(=O)NC[C@@H](C)O)ccc12)c1ccccc1)c1ccc(C#N)cc1` (single isomer, unassigned) [70 Isomer 1]: the concentration for half-maximal inhibition (IC50) was greater than 2 µM.

`CC(Cc1ccc(C(N)=O)cc1)NC(C(=O)c1c[nH]c2ccccc12)c1ccccc1` (single isomer, unassigned) [140 Isomer 3]: the IC50 is greater than 5 µM.

Consider `CC(CNC(C(=O)c1c[nH]c2ccccc12)c1ccccc1)c1ccc(C(N)=O)cc1` (single isomer, unassigned) [141 Isomer 2], for which the IC50 was greater than 5 µM.

For the compound `CC(CNC(C(=O)c1c[nH]c2cc(-c3cnn(C)c3)ccc12)c1ccccc1)c1ccc(Cl)cc1` (single isomer, unassigned) [91 Isomer 2], the IC50 is greater than 30 µM.

Consider `Cn1cnc(-c2ccc3c(C(=O)C(NCCc4ccc(S(N)(=O)=O)cc4)c4ccccc4)c[nH]c3c2)c1` (single isomer, unassigned) [115 Isomer 1], for which the half-maximal inhibitory concentration (IC50) is 1.49 µM.

Consider `N#Cc1ccc(CCNC(C(=O)c2c[nH]c3ccccc23)c2ccccc2)cc1` (single isomer, unassigned) [58 Isomer 1], for which the IC50 stood at 25.3 µM.

Take `CCNC(=O)c1ccc2c(C(=O)C(C)NCCc3ccc(C#N)cc3)c[nH]c2c1` (single isomer, unassigned) [76 Isomer 2]: the IC50 was greater than 5 µM.

For the compound `O=C(c1c[nH]c2ccccc12)C(NCCN1CCOCC1)c1ccccc1` (single isomer, unassigned) [18 Isomer 1], the 50% inhibitory concentration (IC50) was greater than 60 µM.

Turning to `CNC(=O)Cc1ccc(CCNC(C(=O)c2c[nH]c3ccccc23)c2ccccc2)cc1` (single isomer, unassigned) [136 Isomer 2], the IC50 is greater than 60 µM.

The assay is the same for the next values; noted with them: read-out: P300 HAT SPA IC50; p300 HAT domain; average of at least 2 replicate titrations.
`COCCn1cc(C(=O)C(NCCc2ccc(Cl)cc2)c2ccccc2)c2ccccc21` (single isomer, unassigned) [127 Isomer 2]: the half-maximal inhibitory concentration (IC50) was greater than 60 µM.
